Results on 19 molecules are retold here after US10329289B2, “6,7-dihydro-5H-pyrrolo[3,4-B]pyridin-5-one allosteric modulators of the M4 muscarinic acetylcholine receptor” (Merck Sharp & Dohme Corp., priority 2015, dated 2019).

The structures appear in SMILES notation.

For this experiment, the target named is T1, human M4 muscarinic acetylcholine receptor (Homo sapiens, UniProt P08173).
T1 construct: expressed in transfected cells; host or cells: CHO-K1
T1 sequence (P08173 1-479): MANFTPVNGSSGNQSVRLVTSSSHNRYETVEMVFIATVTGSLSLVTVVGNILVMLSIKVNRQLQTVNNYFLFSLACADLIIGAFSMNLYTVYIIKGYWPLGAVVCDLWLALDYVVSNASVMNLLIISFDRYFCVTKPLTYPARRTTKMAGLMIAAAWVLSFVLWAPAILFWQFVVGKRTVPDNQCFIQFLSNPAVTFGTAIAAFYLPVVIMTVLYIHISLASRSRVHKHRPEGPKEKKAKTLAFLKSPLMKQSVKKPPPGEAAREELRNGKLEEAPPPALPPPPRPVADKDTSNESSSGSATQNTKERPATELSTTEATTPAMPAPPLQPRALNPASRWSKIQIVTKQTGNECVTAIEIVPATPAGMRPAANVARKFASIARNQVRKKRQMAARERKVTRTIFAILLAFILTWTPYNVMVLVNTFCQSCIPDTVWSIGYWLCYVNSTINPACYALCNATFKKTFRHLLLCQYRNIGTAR
Briefly: human FLIPR-based M4 PAM assay (Ca2+ mobilization, CHO-K1 cells with human M4 receptor and Gαqi5). As to conditions: acetylcholine at 20% of maximum response, read-out: M4 PAM IP. The class given is cell-based. The essentials: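 CHO-K1 cells stably expressing human M4 and chimeric Gαqi5 were dye-loaded ~1 h at 37 °C and read for Ca2+ fluorescence. Compound followed by acetylcholine at an EC20 (sometimes an EC70 third addition); inflection point from a 4-parameter logistic fit.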
On to `Cc1c(N2CCC(Oc3ccc(F)cc3)CC2)nc2c(c1C)C(=O)N(C)[C@H]2CO` [Example 354, (R)-2-(4-(4-fluorophenoxy)piperidin-1-yl)-7-(hydroxymethyl)-3,4,6-trimethyl-6,7-dihydro-5H-pyrrolo[3,4-b]pyridin-5-one], for which the EC50 was 1470 nM.

Regarding `Cc1cc2c(nc1N1CCC(Oc3ccc4c(c3)OCC4)CC1)[C@@H](CO)N(C)C2=O` [Example 355, (S)-2-(4-((2,3-dihydrobenzofuran-6-yl)oxy)piperidin-1-yl)-7-(hydroxymethyl)-3,6-dimethyl-6,7-dihydro-5H-pyrrolo[3,4-b]pyridin-5-one], the EC50 worked out at 16 nM.

On to `Cc1cc2c(nc1N1CCC(Oc3ccc4c(c3)OCC4)CC1)[C@H](CO)N(C)C2=O` [Example 356, (R)-2-(4-((2,3-dihydrobenzofuran-6-yl)oxy)piperidin-1-yl)-7-(hydroxymethyl)-3,6-dimethyl-6,7-dihydro-5H-pyrrolo[3,4-b]pyridin-5-one], for which the EC50 was found to be 788 nM.

Consider `Cc1cc2c(nc1N1CCC(Oc3cnn(C)c3)CC1)[C@@H](CO)N(C)C2=O` [Example 357, (S)-7-(hydroxymethyl)-3,6-dimethyl-2-(4-((1-methyl-1H-pyrazol-4-yl)oxy)piperidin-1-yl)-6,7-dihydro-5H-pyrrolo[3,4-b]pyridin-5-one], for which the EC50 was 87 nM.

As for `Cc1cc2c(nc1N1CCC(Oc3cnn(C)c3)CC1)[C@H](CO)N(C)C2=O` [Example 358, (R)-7-(hydroxymethyl)-3,6-dimethyl-2-(4-((1-methyl-1H-pyrazol-4-yl)oxy)piperidin-1-yl)-6,7-dihydro-5H-pyrrolo[3,4-b]pyridin-5-one], the EC50 is 8070 nM.

Regarding `Cc1cc2c(nc1N1CCC(Oc3ccc4c(cnn4C)c3)CC1)[C@@H](CO)N(C)C2=O` [Example 359, (S)-7-(hydroxymethyl)-3,6-dimethyl-2-(4-((1-methyl-1H-indazol-5-yl)oxy)piperidin-1-yl)-6,7-dihydro-5H-pyrrolo[3,4-b]pyridin-5-one], the EC50 came to 37 nM.

In the case of `Cc1cc2c(nc1N1CCC(Oc3ccc4c(cnn4C)c3)CC1)[C@H](CO)N(C)C2=O` [Example 360, (R)-7-(hydroxymethyl)-3,6-dimethyl-2-(4-((1-methyl-1H-indazol-5-yl)oxy)piperidin-1-yl)-6,7-dihydro-5H-pyrrolo[3,4-b]pyridin-5-one], the EC50 was 1680 nM.

For `CCc1cc2c(nc1N1CCC(Oc3ccc4c(c3)COCC4)CC1)[C@@H](CO)N(C)C2=O` [Example 361, (S)-3-ethyl-7-(hydroxymethyl)-2-(4-(isochroman-7-yloxy)piperidin-1-yl)-6-methyl-6,7-dihydro-5H-pyrrolo[3,4-b]pyridin-5-one], the EC50 was 85 nM.

On to `CCc1cc2c(nc1N1CCC(Oc3ccc4c(c3)COCC4)CC1)[C@H](CO)N(C)C2=O` [Example 362, (R)-3-ethyl-7-(hydroxymethyl)-2-(4-(isochroman-7-yloxy)piperidin-1-yl)-6-methyl-6,7-dihydro-5H-pyrrolo[3,4-b]pyridin-5-one], for which the EC50 was determined as 1290 nM.

With `CCc1cc2c(nc1N1CCC(Oc3ccc4c(cnn4C)c3)CC1)[C@@H](CO)N(C)C2=O` [Example 363, (S)-3-ethyl-7-(hydroxymethyl)-6-methyl-2-(4-((1-methyl-1H-indazol-5-yl)oxy)piperidin-1-yl)-6,7-dihydro-5H-pyrrolo[3,4-b]pyridin-5-one], the EC50 is 100 nM.

Consider `CCc1cc2c(nc1N1CCC(Oc3ccc4c(cnn4C)c3)CC1)[C@H](CO)N(C)C2=O` [Example 364, (R)-3-ethyl-7-(hydroxymethyl)-6-methyl-2-(4-((1-methyl-1H-indazol-5-yl)oxy)piperidin-1-yl)-6,7-dihydro-5H-pyrrolo[3,4-b]pyridin-5-one], for which the EC50 is 3770 nM.

As for `CCc1cc2c(nc1N1CCC(Oc3ccc4c(c3)OCC4)CC1)[C@@H](CO)N(C)C2=O` [Example 365, (S)-2-(4-((2,3-dihydrobenzofuran-6-yl)oxy)piperidin-1-yl)-3-ethyl-7-(hydroxymethyl)-6-methyl-6,7-dihydro-5H-pyrrolo[3,4-b]pyridin-5-one], the EC50 amounted to 26 nM.

On to `CCc1cc2c(nc1N1CCC(Oc3ccc4c(c3)OCC4)CC1)[C@H](CO)N(C)C2=O` [Example 366, (R)-2-(4-((2,3-dihydrobenzofuran-6-yl)oxy)piperidin-1-yl)-3-ethyl-7-(hydroxymethyl)-6-methyl-6,7-dihydro-5H-pyrrolo[3,4-b]pyridin-5-one], for which the EC50 was 1240 nM.

Take `Cc1c(N2CCC(Oc3ccc4c(c3)CCOC4)CC2)nc2c(c1C)C(=O)N(C)[C@@H]2CO` [Example 369, (S)-7-(hydroxymethyl)-2-(4-(isochroman-6-yloxy)piperidin-1-yl)-3,4,6-trimethyl-6,7-dihydro-5H-pyrrolo[3,4-b]pyridin-5-one]: the EC50 is 57 nM.

Consider `Cc1c(N2CCC(Oc3ccc4c(c3)CCOC4)CC2)nc2c(c1C)C(=O)N(C)[C@H]2CO` [Example 370, (R)-7-(hydroxymethyl)-2-(4-(isochroman-6-yloxy)piperidin-1-yl)-3,4,6-trimethyl-6,7-dihydro-5H-pyrrolo[3,4-b]pyridin-5-one], for which the EC50 is 1190 nM.

As to `Cc1cc2c(nc1N1CCC(Oc3ccc4c(cnn4CCO)c3)CC1)CNC2=O` [Example 371, 2-(4-((1-(2-Hydroxyethyl)-1H-indazol-5-yl)oxy)piperidin-1-yl)-3-methyl-6,7-dihydro-5H-pyrrolo[3,4-b]pyridin-5-one], the EC50 turned out to be 100 nM.

For the molecule `C=Cc1c(C)c(N2CCC(Oc3ccc(OC)nc3)CC2)nc2c1C(=O)NC2` [Example 372, 2-(4-((6-Methoxypyridin-3-yl)oxy)piperidin-1-yl)-3-methyl-4-vinyl-6,7-dihydro-5H-pyrrolo[3,4-b]pyridin-5-one], the EC50 was 634 nM.

On to `Cc1cc2c(nc1N1CCC(Oc3ccc4c(c3)CC(=O)C4)CC1)CNC2=O` [Example 373, 3-Methyl-2-(4-((2-oxo-2,3-dihydro-1H-inden-5-yl)oxy)piperidin-1-yl)-6,7-dihydro-5H-pyrrolo[3,4-b]pyridin-5-one], for which the EC50 was 69 nM.

Take `COc1ccc(OC2CCN(c3nc4c(cc3C)C(=O)N(CCO)C4CO)CC2)cn1` (stereo not shown) [Example 375, 6-(2-Hydroxyethyl)-7-(hydroxymethyl)-2-(4-((6-methoxypyridin-3-yl)oxy)piperidin-1-yl)-3-methyl-6,7-dihydro-5H-pyrrolo[3,4-b]pyridin-5-one]: the EC50 was 69 nM.
